# Like-named read-outs stand apart in the source and are kept apart here.
# Legend:
# [1] = tested on: blood; conditions: 0.1M NaHCO3 in drinking water
# Description: Flow cytometry: With the exception of one group of rats (n=5+5), in all HS fed Dah SS rats, blood pressure telemetry devices were implanted prior to beginning the study. […] No surgical procedures were performed on LS fed Dahl SS rats or Sprague Dawley rats prior to tissue harvest. On the day of tissue harvest rats were anesthetized with isoflurane (2-5%) and a midline incision was performed. The abdominal aorta was catheterized for the collection of ˜2mL of arterial blood in a heparinized tube and the left kidney excised and immediately processed for flow cytometry. Antibody markers utilized for flow cytometry as well as references are given in the online methods.
# In all flow studies, cells were then incubated with antibodies for surface markers for 20 minutes on ice in the dark (all antibodies from Pharmingen-BD-Biosciences, San Jose, Calif.). Cells were then washed with PBS, fixed and permeabilized using FOXP3/Transcription Factor Fix/Perm Buffer (eBiosciences, San Diego, Calif.) for 15 minutes in the dark on ice, and washed once again with PBS before incubation with antibodies for intracellular staining of Foxp3, TNFa, IL-10, and IL-17, on ice in the dark for 20 minutes (BD Biosciences). Cells were then washed and run through a four-color flow cytometer (FACS Calibur, Becton-Dickinson), and data were collected using CellQuest software.
# In all flow studies, group identifiers were removed and flow cytometry analysis was performed by an investigator unaware of the hypothesis or the origin of samples. Samples were double-stained with control IgG and cell markers and were used to assess any spillover signal of fluorochromes; proper compensation was set to ensure the median fluorescence intensities of negative and positive cells were identical and were both gated populations. Gating was used to exclude dead cells and debris using forward and side scatterplots. In each analysis, 100,000 total events were collected. As a gating strategy, for each sample, isotype-matched controls were analyzed to set the appropriate gates. For each marker, samples were analyzed in duplicate measurements. To minimize false-positive events, the number of double- positive events detected with the isotype controls was subtracted from the number of double-positive cells stained with corresponding antibodies (not isotype control), respectively. Cells expressing a specific marker were reported as a percentage of the number of gated events.
# (§1) Rat protocols: Dahl SS rats: All rats were maintained on low salt chow with ad libitum water (tap water). […] Following four days of low salt (LS) feeding, rats were placed on an 8% HS diet (AIN76A 8%; Dyets) for two weeks. 24 hour urine collections were obtained on day 3 of low salt and day 7 and day 14 of high salt feeding if applicable. Following 14 days of HS feeding, rats were anesthetized with isoflurane (2-5%) and tissue harvested for analysis.
# Dahl SS rats on the LS protocol were treated identically to the HS protocol above except following 4 days of LS rats were anesthetized and tissue harvested for flow cytometric analysis prior to beginning a HS diet.
# [2] = tested on: parasympathetic activity
# Description: Changes in heart rate (HR) and RR-interval were monitored over the last 5 min of a 15 min period of quiet rest in a supine position to establish baseline values. Time-domain indices of heart rate variability (HRV) including the root mean square differences of successive normal sinus RR intervals (rMSSD) and the percentage of successive normal sinus RR intervals >50 ms (pNN50) were calculated from a 3-lead ECG that was continuously recorded via a Finapres NOVA (Finapres Medical Systems, The Netherlands). Following treatment an additional 5 min segment of data was collected in the same manner and used to calculate post-treatment values of rMSSD and pNN50.
# Parasympathetic activity was determined as described above. Potassium levels were determined using standard clinical laboratory procedures (Labcorp).
# [3] = for Glucose / HCO3− / Hct / pCO2 / pH / pO2: arterial blood, 0.1M NaHCO3 in drinking water
# Description: Arterial blood gas measurements: Dahl SS rats were anesthetized (2-5% isoflurane) and the left femoral artery was catheterized. Surgically implanted catheters were then tunneled under the skin and exposed between the shoulder blades. Catheters were protected by a light wire spring attached to a swivel (Instech Laboratories Inc, Plymouth Meeting, Pa.), which allows free 360-degree movement of the animal. Rats were individually housed and allowed to recover for 1 week before beginning experimental measurements. Catheters were filled with heparinized saline (30 U/mL) and connected to an infusion pump (Phd2000, Harvard Apparatus, Holliston, Mass.). Infusions of heparinized saline were maintained at 100 μL/hr over the course of the protocol. 0.2 mL arterial blood samples were taken prior to placing rats on treated water, on day 3 of low salt feeding and on day 7 of high salt feeding by disconnecting the catheter from the infusion pump proximal to emergence of the catheter from the rat and drawing arterial blood into a heparinized 1 mL syringe. Arterial blood gas measurements were performed on a Rapidpoint 4055 Blood gas analyzer (Seimens AG, Munich Germany) within 20 minutes of taking the sample. Arterial blood gas measurements on day 14 of HS feeding were taken at the time of sacrifice by left ventricular puncture in anesthetized (2-5% isoflurane) rats.
# as §1
# Blood gas/electrolytes: In a parallel study, rats were implanted with a femoral arterial catheter to allow arterial blood sampling.
# [4] = tested on: TNF-α
# Description: (§2) IL-6 and TNF-α were determined in plasma samples using the microfluidic simple plex cartridge system following manufacturer specifications. Briefly, Simple Plex uses 25 μL of serum for measurement of the […] cytokines. The work flow of the Simple Plex assays is: (a) a test cartridge is primed with samples with each sample split into channels (i.e., TNF-α and IL-6 to react with their respective antibodies immobilized on glass nanoreactors; (b) after sample incubation, circuits in the cartridge are cleaned with wash buffer, and biotinylated detection antibody solutions are individually pumped into their respective channels to bind to protein analyte captured on the GNRs; (c) after incubation, unbound detection antibodies are washed away and a detection solution (i.e., streptavidin DyLight 650) is flowed into all channels to conjugate with the biotinylated detection antibodies; (d) the detection solution is washed away; detection fluorophores (i.e., DyLight 650) are excited with a 631 nm laser; and the fluorescence signals are read with a charge-coupled device (CCD) camera. The signals are used for quantification based on master calibrator curves provided by the manufacturer.
# [5] = tested on: IL-6
# Description: as §2
smiles,measurement,setting,value
"O=C([O-])O.[Na+] [NaHCO3, sodium bicarbonate]",CD3 (% total kidney),[1]; 14 Days HS,57 ± 2%
same,CD4 (% of CD3),[1]; 14 Days HS,53 ± 2%
same,CD44 (% of CD3),[1]; 14 Days HS,14 ± 2%
same,CD69 (% of CD3),[1]; 14 Days HS,0.9 ± 0.3%
same,FOXP3 (% of CD3/CD4),[1]; 14 Days HS,4.4 ± 0.6%
same,IL-17 (% of total kidney),[1]; 14 Days HS,6 ± 1%
same,CD3,[1]; 3 days LS,57 ± 2%
same,CD4,[1]; 3 days LS,55 ± 1%
same,CD44,[1]; 3 days LS,18 ± 1%
same,CD69,[1]; 3 days LS,1.6 ± 0.5%
same,FOXP3,[1]; 3 days LS,5.8 ± 0.7%
same,IL-17,[1]; 3 days LS,5.6 ± 1.1%
same,parasympathetic activity (rMSSD),[2]; ingestion for 2 weeks,improves
same,parasympathetic activity (rMSSD),"[2]; single dose, 60 minutes",improves
same,"markers of plasma acid base status (pH, pCO2, HCO3−)","[3]; across the course of the study, versus vehicle",no significant difference
same,Glucose,[3]; Day 3 LS,195 ± 25 mg/dL
same,HCO3−,[3]; Day 3 LS,25.2 ± 0.7 mM
same,Hct,[3]; Day 3 LS,40 ± 0%
same,pCO2,[3]; Day 3 LS,38.3 ± 1.1
same,pH,[3]; Day 3 LS,7.43 ± 0.01
same,pO2,[3]; Day 3 LS,93.5 ± 2.4
same,Glucose,[3]; Day 7 HS,160 ± 16 mg/dL
same,HCO3−,[3]; Day 7 HS,26.9 ± 0.6 mM
same,Hct,[3]; Day 7 HS,39 ± 2%
same,pCO2,[3]; Day 7 HS,39.4 ± 3.2
same,pH,[3]; Day 7 HS,7.46 ± 0.02
same,pO2,[3]; Day 7 HS,113 ± 16
same,Glucose,[3]; Day 14 HS,235.4 ± 35 mg/dL
same,HCO3−,[3]; Day 14 HS,26.1 ± 1.0 mM
same,Hct,[3]; Day 14 HS,41 ± 2%
same,pCO2,[3]; Day 14 HS,37.4 ± 4.9
same,pH,[3]; Day 14 HS,7.46 ± 0.03
same,pO2,[3]; Day 14 HS,88.7 ± 8.5
same,TNF-α,[4]; ingestion for 2 weeks,reduces
same,TNF-α,"[4]; single dose, 60 minutes",reduces
same,IL-6,[5]; ingestion for 2 weeks,reduces
same,IL-6,"[5]; single dose, 60 minutes",reduces
